In publication PMC8752738, “A propolis-derived small molecule ameliorates metabolic syndrome in obese mice by targeting the CREB/CRTC2 transcriptional complex” (Nature Communications, 2022):
“And” between values parts separate entries of the source, which are not always exact repeats. Equal entries are not always repeated.

Tests used:
[1] = system: mouse Lxra promoter; assay: Truncated Lxra-LUC reporter in HEK293T; type: cell-based; settings: for Relative luciferase reporter activity of mouse LXRa promotor deletion series, group mean (Mean 2) / Relative luciferase reporter activity of mouse LXRa promotor deletion series, group mean (Mean 1) / Relative luciferase reporter activity of mouse LXRa promotor deletion series: APC 10uM; for Relative luciferase reporter activity of mouse LXRa promotor deletion series: individual replicates
Protocol: Fig. 7 APC inhibits SREBP1 expression via the CRE-LXRα-LXRE axis. a Quantitative PCR analysis of hepatic expressions of Lxra, Ppra, Pprg, Rxra in DIO mice, which were continuously i.p. injected with control vehicle (VEH) or APC (20 mg/kg) with indicated doses one time daily for 5 weeks (n = 6 per group). One of two independent experiments is shown here. Data are represented as mean ± SEM. *P < 0.05; **P < 0.01; P values were determined by two-way ANOVA followed Bonferroni’s multiple comparisons test. b Immunoblotting analysis of hepatic LXRα and premature SREBP1 protein levels in the livers of DIO mice injected APC for 5 weeks as (a). One of three independent experiments is shown here (left). The relative protein of LXRα, SREBP1, and PPARα normalized by GAPDH is shown as a bar graph (right) (n = 3). Data are represented as mean ± SEM. *P < 0.05; **P < 0.01; P values were determined by two-way ANOVA followed Bonferroni’s multiple comparisons test. c CHIP analysis LXRa and RXRa recruited to the promoter of the mouse Srebf1 (top) gene in primary hepatocytes from wild C57 mice and pretreated APC (10 μM) for 1-h (bottom) (n = 4 per treatment). One of three independent experiments presented here. Data are represented as mean ± SEM. *P < 0.05; **P < 0.01; P values were determined by two-way ANOVA followed Bonferroni multiple comparisons test. d CHIP analysis of CREB and CRTC2 occupancy over the half CRE sites in the Lxra promoter (Top) in primary mouse hepatocytes overexpressing CRTC2, pretreated with APC (10 μM) for 1-h prior to 1-h glucagon stimulation (Gluc, 100 nM) (bottom) (n = 4 per treatment). One of three independent experiments presented here. Data are represented as mean ± SEM. *P < 0.05; **P < 0.01; P values were determined by two-way ANOVA followed Bonferroni’s multiple comparisons test. e Reporter activity of truncated Lxra-LUC reporter. The luciferase reporter was driven by mouse Lxra promoter (−1342) or truncations (−784 and −178) co-transfected with MYC-Creb and FLAG-Crtc2-S171A in HEK293T cells, and pretreated with APC prior to stimulation with FSK (10 nM) for 4-h (n = 3 per treatment). One of three independent experiments presented here. Data are represented as mean ± SEM. *P < 0.05; **P < 0.01; P values were determined by two-way ANOVA followed Bonferroni’s multiple comparisons test. f Quantitative PCR analysis of the expression of CRTC2, Lxra, Srebf-1c, and Srebf-2, in primary hepatocytes, which were infected by LV-Crtc2-S171A or control and incubated with APC (10 μM) for 8-h (n = 3 per treatment). One of three independent experiments presented here. Data are represented as mean ± SEM. *P < 0.05; **P < 0.01; P values were determined by two-way ANOVA followed Bonferroni’s multiple comparisons test. g Quantitative PCR analysis of Lxra gene expression in the liver of CRTC2-KO mice. Be induced by high-fat diet for 8 weeks, with Crtc2-KO mice and wild-type littermates administered VEH (vehicle control), MET (metformin, 200 mg/kg), or APC (20 mg/kg) for 3 weeks, followed by fasting 8-h before anesthesia (n = 5 per group). Data are represented as mean ± SEM. *P < 0.05; **P < 0.01; P values of Crtc2 gene were determined by unpaired two-tailed t test with Welch’s correction, and P values of Lxra gene were determined by two-way ANOVA followed Bonferroni’s multiple comparisons test. h Immunoblotting analysis of LXRα protein in the liver of these mice as in (g). One of two independent experiments is presented here (top), and the relative concentration of LXRα normalized to ACTIN is shown as a bar graph (bottom). (n = 5 mice per group, two technological repeats represent a composite pool). Data are represented as mean ± SEM. *P < 0.05; **P < 0.01; P values were determined by two-way ANOVA followed Bonferroni’s multiple comparison test. Source data for this figure are provided as source data file.

[2] = system: FGF21; assay: Immunoblotting of plasma and liver FGF21; type: in vivo, mouse

Compound: CC(C)=CCc1cc(C=CC(=O)O)cc(CC=C(C)C)c1O [APC, 3,5-diprenyl-4-hydroxycinnamic acid]
- Relative luciferase reporter activity of mouse LXRa promotor deletion series, group mean (Mean 2) ([1]; -178, CREB/CRTC2-S171A +, Ctrl (no FSK), mean of N=3): 80.85
- Relative luciferase reporter activity of mouse LXRa promotor deletion series, group mean (Mean 1) ([1]; -178, CREB/CRTC2-S171A +, FSK, mean of N=3): 101.4
- Lxra-LUC reporter activity, Mean ([1]; -178 construct, Ctrl (no FSK), mean of N=3, -1342_Ctrl = 100): 80.85
- Lxra-LUC reporter activity, Mean ([1]; -178 construct, FSK, mean of N=3, -178_Ctrl with FSK = 80.5): 101.4
- Relative luciferase reporter activity of mouse LXRa promotor deletion series, group mean (Mean 2) ([1]; -784, CREB/CRTC2-S171A +, Ctrl (no FSK), mean of N=3): 65.74
- Relative luciferase reporter activity of mouse LXRa promotor deletion series, group mean (Mean 1) ([1]; -784, CREB/CRTC2-S171A +, FSK, mean of N=3): 80.88
- Lxra-LUC reporter activity, Mean ([1]; -784 construct, Ctrl (no FSK), mean of N=3, -1342_Ctrl = 100): 65.74
- Lxra-LUC reporter activity, Mean ([1]; -784 construct, FSK, mean of N=3, -784_Ctrl with FSK = 84.79): 80.88
- Relative luciferase reporter activity of mouse LXRa promotor deletion series, group mean (Mean 2) ([1]; -1342, CREB/CRTC2-S171A +, Ctrl (no FSK), mean of N=3): 120.4
- Relative luciferase reporter activity of mouse LXRa promotor deletion series, group mean (Mean 1) ([1]; -1342, CREB/CRTC2-S171A +, FSK, mean of N=3): 140.5
- Lxra-LUC reporter activity, Mean ([1]; -1342 construct, Ctrl (no FSK), mean of N=3, -1342_Ctrl = 100): 120.4
- Lxra-LUC reporter activity, Mean ([1]; -1342 construct, FSK, mean of N=3, -1342_Ctrl with FSK = 265.7): 140.5
- Lxrα-luc reporter activity ([1]; HEK293T, FSK, attenuated when half CRE site −984 deleted): inhibition of Lxrα-luc reporter activity
- Relative luciferase reporter activity of mouse LXRa promotor deletion series ([1]; mLXRa promoter region -178, CREB/CRTC2-S171A +, Ctrl (no FSK)): 68.909
- Relative luciferase reporter activity of mouse LXRa promotor deletion series ([1]; mLXRa promoter region -178, CREB/CRTC2-S171A +, Ctrl (no FSK), unstimulated control): 81.477 and 92.1755
- Relative luciferase reporter activity of mouse LXRa promotor deletion series ([1]; mLXRa promoter region -178, CREB/CRTC2-S171A +, FSK, FSK stimulated): 110.535 and 84.2634 and 109.449
- Relative luciferase reporter activity of mouse LXRa promotor deletion series ([1]; mLXRa promoter region -784, CREB/CRTC2-S171A +, Ctrl (no FSK)): 58.3809
- Relative luciferase reporter activity of mouse LXRa promotor deletion series ([1]; mLXRa promoter region -784, CREB/CRTC2-S171A +, Ctrl (no FSK), unstimulated control): 73.0822 and 65.7554
- Relative luciferase reporter activity of mouse LXRa promotor deletion series ([1]; mLXRa promoter region -784, CREB/CRTC2-S171A +, FSK, FSK stimulated): 83.8052 and 88.4723 and 70.3736
- Relative luciferase reporter activity of mouse LXRa promotor deletion series ([1]; mLXRa promoter region -1342, CREB/CRTC2-S171A +, Ctrl (no FSK)): 97.1063
- Relative luciferase reporter activity of mouse LXRa promotor deletion series ([1]; mLXRa promoter region -1342, CREB/CRTC2-S171A +, Ctrl (no FSK), unstimulated control): 135.223 and 128.99
- Relative luciferase reporter activity of mouse LXRa promotor deletion series ([1]; mLXRa promoter region -1342, CREB/CRTC2-S171A +, FSK, FSK stimulated): 139.251 and 135.05 and 147.302
- liver FGF21 in WT, group mean (Mean 2) ([2]; Supp. Fig.10 f down, WT mice, n=3, VEH mean 1.024): 2.405
- Bands density of FGF21 in the liver ([2]; Supp. Fig.10 f down, WT mice, oral, individual replicates, Veh about 1.02): 2.277 and 2.103 and 2.8341
- Bands density, plasma FGF21 in WT ([2]; Supp. Fig.10 f up, WT mice, individual replicates, VEH about 1.08): 1.716 and 1.667 and 1.521
- Bands density, plasma FGF21 in WT, group mean (Mean 2) ([2]; Supp. Fig.10 f up, WT mice, n=3, VEH mean 1.077): 1.634
- plasma and liver FGF21 ([2]; wild-type control group, oral 20 mg/kg, 3 weeks): increased
